Test results published in patent publication US12507703B2, “Methods, devices and compositions for preserving human milk” (The Trustees of Princeton University, priority 2023, dated 2025).
Values joined by “and” are separate entries in the source; they are usually repeats but may differ in a detail not shown here. Identical values can stand only once. Blank lines part the entries; values can stand above or below the molecule they belong to. Where a SMILES comes first, the peptide text is derived from it.

Test system: lipase
Test: Lipase/lipolysis assay (EnzChek Lipase Substrate, quenched BODIPY-fatty acid conjugate) on stored human milk; for Lipase (RFU): test concentration or dose not given here

Molecule: O=P([O-])([O-])OP(=O)(O)O.[Na+].[Na+] [Disodium pyrophosphate]
- Lipase (RFU): 1213.966 RFU

Molecule: CC[C@H](N)C(=O)O [H-Abu-OH]
- Lipase (RFU): 993.6587 RFU

Molecule: CC(=O)CCc1ccc(O[C@@H]2O[C@H](CO)[C@@H](O)[C@H](O)[C@H]2O)cc1 [Raspberry ketone glucoside]
- Lipase (RFU): 1167.769 RFU

Molecule: O=C(O)c1cc(O)c2c(c1)[C@H]([C@H]1c3cc(C(=O)O)cc(O)c3C(=O)c3c(O[C@@H]4O[C@H](CO)[C@@H](O)[C@H](O)[C@H]4O)cccc31)c1cccc(O[C@@H]3O[C@H](CO)[C@@H](O)[C@H](O)[C@H]3O)c1C2=O [Sennoside A]
- Lipase (RFU): 1002.323 RFU

Molecule: CC1(C)C[C@@H](O)[C@]2(C)CC[C@]3(C)C(=CC[C@@H]4[C@@]5(C)CC[C@H](O)[C@](C)(CO)[C@@H]5CC[C@]43C)[C@@H]2C1 [Soyasapogenol B]
- Lipase (RFU): 1146.412 RFU

Molecule: COc1cc([C@H]2c3cc(O)c(OC)cc3C[C@@H](C)[C@@H]2C)ccc1O [Guaiacin]
- Lipase (RFU): 808.3575 RFU

Molecule: CC(C)C[C@H](NC(=O)CN)C(=O)O [Glycyl-L-leucine]
- Lipase (RFU): 829.1827 RFU

Molecule: C=C(CC(=O)O)C(=O)O [Itaconic Acid]
- Lipase (RFU): 944.0433 RFU

Molecule: CC1(C)[C@H](C(=O)O)N2C(=O)C[C@H]2S1(=O)=O [Sulbactam]
- Lipase (RFU): 759.2536 RFU

Molecule: COc1cc(C)ccc1O [Creosol]
- Lipase (RFU): 835.9293 RFU and 462.1743 RFU

Molecule: CC(C)=CCC/C(C)=C/CC/C(C)=C/CC[C@]1(C)CCc2cc(O)cc(C)c2O1 [δ-Tocotrienol]
- Lipase (RFU): 1061.05 RFU

Molecule: C[C@H]1CCCC(=O)CCC/C=C/c2cc(O)cc(O)c2C(=O)O1 [Zearalenone]
- Lipase (RFU): 758.7174 RFU

Molecule: Nc1nc2c(ncn2[C@@H]2O[C@@H]3COP(=O)([O-])O[C@H]3[C@H]2O)c(=O)[nH]1.[Na+] [Cyclic GMP (sodium)]
- Lipase (RFU): 1109.907 RFU

Molecule: C[C@H](CCC(=O)NCC(=O)O)[C@H]1CC[C@H]2[C@@H]3CC[C@@H]4C[C@H](O)CC[C@]4(C)[C@H]3CC[C@]12C [Glycolithocholic acid]
- Lipase (RFU): 1103.978 RFU

Molecule: Liquiritin apioside
- Lipase (RFU): 875.5815 RFU

Molecule: COc1cc2c(cc1O)CC[C@@H]1[C@@H]2CC[C@]2(C)C(=O)CC[C@@H]12 [Compound 2-Methoxyestrone]
- Lipase (RFU): 970.0321 RFU

Molecule: COc1cc(-c2cc(=O)c3c(O)cc(O)cc3o2)cc(OC)c1O [Tricin]
- Lipase (RFU): 691.2218 RFU

Molecule: N[C@@H](CSCSC[C@H](N)C(=O)O)C(=O)O [L-Djenkolic Acid]
- Hit in lipase inhibition screen (in words): significantly inhibited lipase activity
- Lipase (RFU): 317.7642 RFU

Molecule: C[S+]([O-])CCCC/C(=N\OS(=O)(=O)O)S[C@@H]1O[C@H](CO)[C@@H](O)[C@H](O)[C@H]1O (stereo partly shown) [Glucoraphanin]
- Lipase (RFU): 983.9092 RFU

Molecule: CC1=C(/C=C/C(C)=C/C=C/C(C)=C/C=C/C=C(C)/C=C/C=C(\C)C=O)C(C)(C)CCC1 [β-Apo-8′-carotenal]
- Lipase (RFU): 958.4764 RFU and 851.8107 RFU

Molecule: C[C@]12CCC(=O)C=C1CC[C@@H]1[C@@H]2C(=O)C[C@@]2(C)[C@H]1CC[C@]2(O)C(=O)CO [Cortisone]
- Lipase (RFU): 1233.864 RFU

Molecule: COc1ccc(-c2oc3c(OC)c(O)cc(O)c3c(=O)c2O)cc1 [Prudomestin]
- Lipase (RFU): 894.1495 RFU

Molecule: COc1ccc(-c2cc(=O)c3c(OC)cc(OC)c(OC)c3o2)cc1 [6-Demethoxytangeretin]
- Lipase (RFU): 818.2248 RFU

Molecule: CC(=O)[C@@]1(O)CC[C@H]2[C@@H]3CC=C4C[C@@H](O)CC[C@]4(C)[C@H]3CC[C@@]21C [Compound 17a-Hydroxypregnenolone]
- Lipase (RFU): 861.6395 RFU

Molecule: O=C(C=Cc1ccc(O)c(O)c1)OC1CC(O)(C(=O)O)CC(O)C1OC(=O)C=Cc1ccc(O)c(O)c1 (stereo not shown) [4,5-Dicaffeoylquinic acid]
- Lipase (RFU): 1065.884 RFU

Molecule: COc1cc(C[C@@H](CO)[C@H](CO)Cc2ccc(O)c(OC)c2)ccc1O [Secoisolariciresinol]
- Lipase (RFU): 1112.005 RFU

Molecule: CC(C)[C@@H](C)[C@@H](O)[C@H](O)[C@@H](C)[C@H]1CC[C@H]2[C@@H]3COC(=O)[C@H]4C[C@H](O)[C@H](O)C[C@]4(C)[C@H]3CC[C@]12C [Epibrassinolide]
- Lipase (RFU): 830.2794 RFU

Molecule: C[n+]1cccc(C(N)=O)c1 [TRIA-662]
- Lipase (RFU): 1140.39 RFU

Molecule: CC1=CCC(=O)O1 [α-Angelica lactone]
- Lipase (RFU): 1137.248 RFU

Molecule: CCO.C[C@H]1c2cccc(O)c2C(O)=C2C(=O)[C@]3(O)C(O)=C(C(N)=O)C(=O)[C@@H](N(C)C)[C@@H]3[C@@H](O)[C@@H]21.C[C@H]1c2cccc(O)c2C(O)=C2C(=O)[C@]3(O)C(O)=C(C(N)=O)C(=O)[C@@H](N(C)C)[C@@H]3[C@@H](O)[C@@H]21.Cl.Cl.O [Doxycycline (hyclate)]
- Lipase (RFU): 757.6717 RFU

Molecule: CC1=C(O)C(=O)C=C2C1=CC=C1[C@@]2(C)CC[C@@]2(C)[C@@H]3C[C@](C)(C(=O)O)CC[C@]3(C)CC[C@]12C [Tripterin]
- Lipase (RFU): 952.6128 RFU

Molecule: CC(=O)OC[C@H]1O[C@@H](O[C@@H]2[C@@H](O)[C@H](O[C@@H]3[C@H](O)C(C)(C)C[C@H]4C5=CC[C@@H]6[C@@]7(C)CC[C@H](O[C@@H]8O[C@H](C(=O)O)[C@@H](O)[C@H](O)[C@H]8O[C@@H]8O[C@H](CO)[C@H](O)[C@H](O)[C@H]8O[C@@H]8O[C@H](CO)[C@@H](O)[C@H](O)[C@H]8O)[C@](C)(CO)[C@@H]7CC[C@@]6(C)[C@]5(C)CC[C@@]34C)OC[C@@H]2O)[C@H](OC(C)=O)[C@@H](OC(C)=O)[C@@H]1OC(C)=O [Soyasaponin Ab]
- Lipase (RFU): 976.6301 RFU

Molecule: OC[C@H]1O[C@@H](O[C@H]2[C@H](O)[C@@H](O)[C@@H](O)O[C@@H]2CO)[C@H](O)[C@@H](O)[C@H]1O [Lactose]
- Lipase (RFU): 912.5223 RFU

Molecule: OC[C@@H](O)[C@@H](O)CO [meso-Erythritol]
- Lipase (RFU): 838.849 RFU

Molecule: CC(C)(O[C@@H]1O[C@H](CO)[C@@H](O)[C@H](O)[C@H]1O)[C@H]1Oc2cc3oc(=O)ccc3cc2[C@H]1O [Smyrindioloside]
- Lipase (RFU): 1066.572 RFU

Molecule: O=C(O)c1cc(O)c2cccc(O)c2n1 [Xanthurenic acid]
- Lipase (RFU): 1023.37 RFU

Molecule: CC(=O)c1ccccc1N [2′-Aminoacetophenone]
- Lipase (RFU): 970.2571 RFU

- Lipase (RFU): 1101.527 RFU and 821.1812 RFU
Molecule: N[C@@H](CCC(=O)O)C(=O)O [L-Glutamic Acid]

Molecule: COc1cc2oc3cc(OC)c(OC)c(CC=C(C)C)c3c(=O)c2c(O)c1CC=C(C)C [Fuscaxanthone C]
- Lipase (RFU): 819.3619 RFU

Molecule: Phytol
- Lipase (RFU): 1207.906 RFU and 715.6019 RFU

Molecule: CC(O)CN (stereo not shown) [Compound 1-Aminopropan-2-ol, 1-Aminopropan-2-ol]
- Lipase (RFU): 1021.874 RFU and 806.2549 RFU

Molecule: c1ccc2c(c1)Nc1ccccc1S2 [Phenothiazine]
- Lipase (RFU): 725.1361 RFU

Molecule: COc1cc2c(cc1O)CC[C@@H]1[C@@H]2CC[C@]2(C)[C@@H](O)CC[C@@H]12 [Compound 2-Methoxyestradiol]
- Lipase (RFU): 884.0231 RFU

Molecule: CC(C)CCC[C@@H](C)[C@H]1CC[C@H]2[C@@H]3CCC4=CC(=O)CC[C@]4(C)[C@H]3CC[C@]12C [Cholestenone]
- Lipase (RFU): 787.5717 RFU

Molecule: C[C@H](CCC(=O)O)[C@H]1CC[C@H]2[C@@H]3C(=O)C[C@@H]4C[C@H](O)CC[C@]4(C)[C@H]3C[C@H](O)[C@]12C [7-keto-Deoxycholic acid]
- Lipase (RFU): 890.8412 RFU

Molecule: NCC(=O)N1CCC[C@H]1C(=O)O [Glycyl-L-Proline] (H-Gly-Pro-OH)
- Hit in lipase inhibition screen (in words): significantly inhibited lipase activity
- Lipase (RFU): 318.8964 RFU

Molecule: CC1(C)[C@H](C(=O)[O-])N2C(=O)C[C@H]2S1(=O)=O.[Na+] [Sulbactam (sodium)]
- Lipase (RFU): 1191.707 RFU

Molecule: COc1cc2c(cc1OC)-c1c(OC)c(OC)cc3c1[C@H](C2)N(C)CC3 [Glaucine]
- Lipase (RFU): 922.5844 RFU

Molecule: OC[C@H]1O[C@@](CO)(O[C@H]2O[C@H](CO)[C@@H](O)[C@H](O)[C@H]2O)[C@@H](O[C@H]2O[C@H](CO)[C@@H](O)[C@H](O)[C@H]2O)[C@@H]1O [D-Melezitose]
- Lipase (RFU): 1021.506 RFU

Molecule: CCCCCCCCCCCC(=O)O[C@H](CC(=O)[O-])C[N+](C)(C)C [Dodecanoylcarnitine]
- Lipase (RFU): 868.7983 RFU

Molecule: CC(C)(O)/C=C/C(=O)[C@](C)(O)[C@H]1[C@H](O)C[C@@]2(C)[C@@H]3CC=C4[C@@H](C[C@H](O)C(=O)C4(C)C)[C@]3(C)C(=O)C[C@]12C [Cucurbitacin D]
- Lipase (RFU): 937.0398 RFU

Molecule: C=C(C)[C@H]1C=C[C@@](C)(O)CC1 [cis-Isolimonenol]
- Lipase (RFU): 930.1567 RFU

Molecule: Nc1nc2c(ncn2[C@H]2C[C@H](O)[C@@H](CO)O2)c(=O)[nH]1.O [2′-Deoxyguanosine monohydrate]
- Lipase (RFU): 782.4513 RFU

Molecule: N=C(N)NCCC[C@H](N)C(=O)O [L-Arginine]
- Lipase (RFU): 753.4686 RFU and 980.9809 RFU and 913.1858 RFU

Molecule: OC[C@H]1O[C@H](OC[C@H]2O[C@H](O[C@]3(CO)O[C@H](CO)[C@@H](O)[C@@H]3O)[C@H](O)[C@@H](O)[C@@H]2O)[C@H](O)[C@@H](O)[C@H]1O [D-Raffinose]
- Lipase (RFU): 981.0683 RFU

Molecule: C[C@]12CC[C@@H](O)C[C@H]1CC[C@@H]1[C@@H]2[C@@H](O)C[C@@]2(C)[C@H]1CC[C@]2(O)C(=O)CO [Tetrahydrocortisol]
- Lipase (RFU): 1127.321 RFU

Molecule: COc1cc2oc(=O)ccc2cc1CC=C(C)C [Suberosin]
- Lipase (RFU): 1003.25 RFU

Molecule: COc1ccc(-c2cc(=O)c3c(O)c(OC)c(OC)cc3o2)cc1OC [5-Desmethylsinensetin]
- Lipase (RFU): 571020.7 RFU

Molecule: COc1cc(-c2oc3cc(O[C@@H]4O[C@H](CO)[C@@H](O)[C@H](O)[C@H]4O)cc(O)c3c(=O)c2O)ccc1O [Brassicin]
- Lipase (RFU): 1089.017 RFU

Molecule: O=C1O[C@H]([C@H](O)CO)C(O)=C1O [Erythorbic acid]
- Lipase (RFU): 1131.679 RFU

Molecule: CC[C@H]1OC(=O)C[C@@H](O)[C@H](C)[C@@H](O[C@@H]2O[C@H](C)[C@@H](O[C@H]3C[C@@](C)(O)[C@@H](O)[C@H](C)O3)[C@H](N(C)C)[C@H]2O)[C@@H](CC=O)C[C@@H](C)C(=O)/C=C/C(C)=C/[C@@H]1CO[C@@H]1O[C@H](C)[C@@H](O)[C@@H](OC)[C@H]1OC [Tylosin (phosphate)]
- Lipase (RFU): 1132.19 RFU

Molecule: Cc1cc(O)c(C)c2c1O[C@](C)(CCC[C@H](C)CCC[C@H](C)CCCC(C)C)CC2 (relative stereo) [(rel)-β-Tocopherol]
- Lipase (RFU): 1146.301 RFU
